Reference: patent US20210369874A1, “COMPOSITION FOR DETECTING BIOFILMS ON VIABLE TISSUES” (CONVATEC TECHNOLOGIES INC., priority 2010, published 2021)
Several values for one entry are separate records, joined by “and”; a condition that tells them apart may be missing. Identical values can stand only once.

Key:
Assay type in all cases: cell-based
[1] = tested on: S. aureus biofilms; experiment: Rose Bengal staining of biofilms, membrane filter biofilm model (S. aureus); conditions: 30 seconds
Procedure: (§1) A membrane filter biofilm model was used to study the effect of Rose Bengal concentration on the efficacy of biofilm staining. Briefly, a 5 μl volume of a 5×10^5 cfu/ml suspension of S. aureus or P. aeruginosa was added to the centre of sterile membrane filter discs (pore size 0.2 μm; Anodise, Whatman) which were placed onto 7 ml volumes of sterile Tryptic Soya Broth in lidded 6-well plates. Samples were incubated for 4 hours (immature biofilms), and 24 and 48 hours (mature biofilms), and excess planktonic cells were rinsed from the filters. The biofilms on the filters were stained by pipetting 2 ml volumes of Rose Bengal (60 μM or 300 μM) or saline (negative control) for 30 seconds, followed by rinsing. Rose Bengal was recovered from the biofilm samples by stomaching and overnight digestion in 2% sodium dodecyl sulphate, centrifugation, then measuring of absorption spectra in a UV-vis spectrophotometer. Rose Bengal uptake per sample was determined by comparison of absorption values with a standard curve of Rose Bengal in 2% SDS. […] Only at the highest concentrations of 300 μM did the immature, 4-hour biofilms appear to be stained, although this was likely due to some staining of the filters themselves. […] This simple method for quantifying the uptake of Rose Bengal by biofilms utilises the absorption spectra of the dye. Using the absorption spectra to quantify the dye is similar to detecting the fluorescence using a light source with optical filters. Uptake could then alternatively be observed qualitatively using the naked eye or by observing the fluorescence emission of the Rose Bengal in conjunction with a light source and optical filter.

[2] = tested on: P. aeruginosa biofilms; experiment: Rose Bengal staining of biofilms, membrane filter biofilm model (P. aeruginosa); conditions: 30 seconds
Procedure: as §1

[3] = tested on: mixed biofilms of Staphylococcus aureus and Pseudomonas aeruginosa; experiment: Assessment of biofilm stains using the constant-depth biofilm fermenter (CDFF); conditions: 100 μM stain, two minutes, 4-day mixed biofilms, n=6
Source text: A constant depth biofilm fermenter (CDFF) was used to culture 4-day mixed biofilms of Staphylococcus aureus and Pseudomonas aeruginosa. Briefly, biofilms were formed in recesses in 15 PTFE pans around the rim of a rotating steel turntable onto which inoculum or sterile growth media was allowed to steadily drip. A scraper bar distributed bacterial inoculum or media over the pans as the turntable rotated, maintaining the biofilms at a steady depth. Each pan contained 5 removable plugs, 4 mm in diameter which were recessed to a depth of 300 μm. The resulting biofilms that grew in the plug recesses were reproducible in terms of appearance and microbiological composition and could be removed from the CDFF through a sampling port using sterile instruments. […] Absorption spectra of the aspired supernatants were then measured in a spectrophotometer and these spectra compared to spectra of known concentrations (100 μM) of each stain in 2% SDS.

[4] = tested on: mixed biofilms of Staphylococcus aureus and Pseudomonas aeruginosa; experiment: Assessment of biofilm stains using the CDC biofilm reactor; conditions: 100 μM stain, two minutes, 48 hour mixed biofilms, n=9
Procedure: A Centre for Disease Control (CDC) biofilm reactor was used to culture 48 hour mixed biofilms of Staphylococcus aureus and Pseudomonas aeruginosa. Briefly, biofilms were formed on coupons on reactor rods which were held within the reactor vessel containing a continuously mixed culture of S. aureus and P. aeruginosa at 35° C. Biofilm-containing coupons were removed from the rods, rinsed once by dipping in sterile saline for 5 seconds, then incubated in 10 ml volumes of the following biofilm stains at 100 μM concentration in deionised water, in the dark for two minutes: Erythrosine; Rose Bengal; Alcian Blue; Rhodamine B; Rhodamine 123; Rose Bengal with 2% w/v EDTA and 1% w/v BaCl (RBEB). Following another rinse in saline, nine coupons for each stain were each added to 2 ml volumes of 2% SDS for stomaching at ‘high’ setting for 1 minute then incubated overnight in the dark at 37° C., for digestion. Samples were then spun at 13,000 rpm for 5 minutes to separate the supernatant from digested cell debris. Absorption spectra of the aspired supernatants were then measured in a spectrophotometer and these spectra compared to spectra of known concentrations (100 μM) of each stain in 2% SDS.

[5] = S. aureus biofilm age 4 h, [RB] 60 μM
[6] = P. aeruginosa biofilm age 4 h, [RB] 60 μM

O=C([O-])c1c(Cl)c(Cl)c(Cl)c(Cl)c1-c1c2cc(I)c(=O)c(I)c-2oc2c(I)c([O-])c(I)cc12.[Na+].[Na+] [Rose Bengal]
Rose Bengal uptake per sample, Avg [1, 5]: 0 | Rose Bengal uptake per sample, single replicates 1-3 [1, 5]: 0 | Rose Bengal uptake per sample, Avg ([1]; S. aureus biofilm age 4 h, [RB] 300 μM, likely some staining of the filters themselves): 1.56 | Rose Bengal uptake per sample, single replicates 1-3 ([1]; S. aureus biofilm age 4 h, [RB] 300 μM, likely some staining of the filters themselves, listed as RB): 1.59 and 1.45 and 1.64 | Rose Bengal uptake per sample, Avg ([1]; S. aureus biofilm age 24 h, [RB] 60 μM): 1.85 | Rose Bengal uptake per sample, single replicates 1-3 ([1]; S. aureus biofilm age 24 h, [RB] 60 μM, listed as RB): 1.66 and 1.72 and 2.17 | Rose Bengal uptake per sample, Avg ([1]; S. aureus biofilm age 24 h, [RB] 300 μM): 4.44 | Rose Bengal uptake per sample, single replicates 1-3 ([1]; S. aureus biofilm age 24 h, [RB] 300 μM, listed as RB): 4.82 and 4.55 and 3.95 | Rose Bengal uptake per sample, Avg ([1]; S. aureus biofilm age 48 h, [RB] 60 μM): 1.24 | Rose Bengal uptake per sample, single replicates 1-3 ([1]; S. aureus biofilm age 48 h, [RB] 60 μM, listed as RB): 1.22 and 1.12 and 1.37 | Rose Bengal uptake per sample, Avg ([1]; S. aureus biofilm age 48 h, [RB] 300 μM): 5.72 | Rose Bengal uptake per sample, single replicates 1-3 ([1]; S. aureus biofilm age 48 h, [RB] 300 μM, listed as RB): 6.26 and 5.18 and 5.71 | Rose Bengal uptake by mature biofilms (in words) ([1]; S. aureus, 24 and 48 hours biofilms, 60 μM or 300 μM): dye concentration- and biofilm age-dependent manner | Rose Bengal uptake per sample, Avg [2, 6]: 0 | Rose Bengal uptake per sample, single replicates 1-3 [2, 6]: 0 | Rose Bengal uptake per sample, Avg ([2]; P. aeruginosa biofilm age 4 h, [RB] 300 μM, likely some staining of the filters themselves): 1.72 | Rose Bengal uptake per sample, single replicates 1-3 ([2]; P. aeruginosa biofilm age 4 h, [RB] 300 μM, likely some staining of the filters themselves, listed as RB): 1.52 and 1.76 and 1.88 | Rose Bengal uptake per sample, Avg ([2]; P. aeruginosa biofilm age 24 h, [RB] 60 μM): 1.94 | Rose Bengal uptake per sample, single replicates 1-3 ([2]; P. aeruginosa biofilm age 24 h, [RB] 60 μM, listed as RB): 2.04 and 1.76 and 2.02 | Rose Bengal uptake per sample, Avg ([2]; P. aeruginosa biofilm age 24 h, [RB] 300 μM): 5.10 | Rose Bengal uptake per sample, single replicates 1-3 ([2]; P. aeruginosa biofilm age 24 h, [RB] 300 μM, listed as RB): 5.05 and 5.84 and 4.41 | Rose Bengal uptake per sample, Avg ([2]; P. aeruginosa biofilm age 48 h, [RB] 60 μM): 2.39 | Rose Bengal uptake per sample, single replicates 1-3 ([2]; P. aeruginosa biofilm age 48 h, [RB] 60 μM, listed as RB): 3.15 and 1.66 and 2.37 | Rose Bengal uptake per sample, Avg ([2]; P. aeruginosa biofilm age 48 h, [RB] 300 μM): 7.30 | Rose Bengal uptake per sample, single replicates 1-3 ([2]; P. aeruginosa biofilm age 48 h, [RB] 300 μM, listed as RB): 6.20 and 9.01 and 6.69 | Rose Bengal uptake by mature biofilms (in words) ([2]; P. aeruginosa, 24 and 48 hours biofilms, 60 μM or 300 μM): dye concentration- and biofilm age-dependent manner

CCN(Cc1cccc(S(=O)(=O)[O-])c1)c1ccc(C(=C2C=CC(=[N+](CC)Cc3cccc(S(=O)(=O)[O-])c3)C=C2)c2ccc(O)cc2S(=O)(=O)[O-])cc1.[Na+].[Na+] [Fast Green]
effectiveness as stain of biofilms grown in the CDFF (FIG. 1) [3]: most effective stain

Alcian Blue
biofilm staining expressed as ratio of measured absorption: absorption at 100 1.1M (i.e. concentration) (FIG. 2b) [4]: most effective biofilm stain
